Assay results published in patent US8067627B2, “Zinc-monocysteine complex and method of using zinc-cysteine complexes” (priority 2000, dated 2011).

Columns and labels:
Format in all cases: cell-based
catalase = assay: Catalase activity in cultured retinal pigment epithelial cells; conditions: 0, 15, 30 or 100 μM, compared with zinc acetate, zinc chloride, zinc sulfate
Procedure: (§1) The biological efficacy was tested by adding 0, 15, 30 or 100 μM of zinc cysteine to cultured retinal pigment epithelial cells in comparison to zinc salts (zinc acetate, zinc chloride, and zinc sulfate).
(§2) The complex of zinc-cysteine increased the activity of antioxidant enzymes catalase and glutathione peroxidase, and the antioxidant protein metallothionein in cultured retinal pigment epithelial cells more efficiently and potently than zinc acetate, zinc chloride, and zinc sulfate. […] The zinc-cysteine complex may be readily absorbed and distributed inside the cell to provide beneficial needs in regulating the antioxidant economy.

RPE cells = assay: Protection of RPE cells from increasing hydrogen peroxide concentrations; conditions: compared with the zinc salts (zinc acetate, zinc chloride, zinc sulfate)
Procedure: as §1, §2

metallothionein = assay: Metallothionein in cultured retinal pigment epithelial cells; conditions: 0, 15, 30 or 100 μM, compared with zinc acetate, zinc chloride, zinc sulfate
Procedure: as §1, §2

glutathione peroxidase = assay: Glutathione peroxidase activity in cultured retinal pigment epithelial cells; conditions: 0, 15, 30 or 100 μM, compared with zinc acetate, zinc chloride, zinc sulfate
Procedure: as §1, §2

NC1C[S][Zn][O]C1=O (stereo not drawn) [zinc-cysteine, zinc-monocysteine complex]
activity of antioxidant enzyme catalase (catalase): increased | protecting RPE cells from increasing hydrogen peroxide concentrations (RPE cells): more potent | antioxidant protein metallothionein (metallothionein): increased | activity of antioxidant enzyme glutathione peroxidase (glutathione peroxidase): increased

N[C@@H](CS)C(=O)O [cysteine]
activity of antioxidant enzyme catalase (catalase): did not have an effect | antioxidant protein metallothionein (metallothionein): did not have an effect
